PubChem BioAssay (NCI)
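A five-concentration, 48-hour dose response in 96-well plates underlies each endpoint, interpolated linearly between surrounding concentrations. The concentration for full growth arrest is given as TGI.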

What was measured:
Experiment in all cases: inhibition of tumour cell growth, NCI panel, 48 h
MOLT-4 leukemia = system: MOLT-4 leukemia
HL-60(TB) leukemia = system: HL-60(TB) leukemia
BT-549 breast = system: BT-549 breast
RXF 393 renal = system: RXF 393 renal
U251 CNS = system: U251 CNS
SNB-19 CNS = system: SNB-19 CNS
NCI-H522 lung = system: NCI-H522 lung
A549 NSCLC = system: A549 NSCLC
MCF7 breast = system: MCF7 breast
DU-145 prostate = system: DU-145 prostate
HCT-116 colon = system: HCT-116 colon
HT29 colon = system: HT29 colon
IGROV1 ovarian = system: IGROV1 ovarian
HCT-15 colon = system: HCT-15 colon
SF-268 CNS = system: SF-268 CNS
UACC-257 melanoma = system: UACC-257 melanoma
A498 renal = system: A498 renal
CAKI-1 renal = system: CAKI-1 renal
EKVX NSCLC = system: EKVX NSCLC
HOP-92 NSCLC = system: HOP-92 NSCLC
SF-295 CNS = system: SF-295 CNS
MDA-N = system: MDA-N
KM12 colon = system: KM12 colon
HOP-62 NSCLC = system: HOP-62 NSCLC
PC-3 prostate = system: PC-3 prostate
LOX IMVI melanoma = system: LOX IMVI melanoma
SF-539 CNS = system: SF-539 CNS
ACHN renal = system: ACHN renal
T-47D breast = system: T-47D breast
OVCAR-4 ovarian = system: OVCAR-4 ovarian
SK-OV-3 ovarian = system: SK-OV-3 ovarian
786-0 renal = system: 786-0 renal
OVCAR-8 ovarian = system: OVCAR-8 ovarian
SW-620 colon = system: SW-620 colon
CCRF-CEM leukemia = system: CCRF-CEM leukemia
SK-MEL-5 melanoma = system: SK-MEL-5 melanoma
SN12C renal = system: SN12C renal
NCI-H23 lung = system: NCI-H23 lung
UACC-62 melanoma = system: UACC-62 melanoma
MALME-3M melanoma = system: MALME-3M melanoma
COLO 205 colon = system: COLO 205 colon
OVCAR-5 ovarian = system: OVCAR-5 ovarian
NCI-H460 lung = system: NCI-H460 lung
TK-10 renal = system: TK-10 renal
MDA-MB-231 breast = system: MDA-MB-231 breast
RPMI-8226 leukemia = system: RPMI-8226 leukemia
OVCAR-3 ovarian = system: OVCAR-3 ovarian
NCI/ADR-RES ovarian = system: NCI/ADR-RES ovarian
MDA-MB-435 = system: MDA-MB-435
SK-MEL-28 melanoma = system: SK-MEL-28 melanoma
SK-MEL-2 melanoma = system: SK-MEL-2 melanoma
HS 578T breast = system: HS 578T breast
M14 melanoma = system: M14 melanoma
NCI-H226 lung = system: NCI-H226 lung
HCC-2998 colon = system: HCC-2998 colon
SR leukemia = system: SR leukemia
SNB-75 CNS = system: SNB-75 CNS
UO-31 renal = system: UO-31 renal
K-562 leukemia = system: K-562 leukemia

Q: `CCCN1C(=O)CC(C)N(Cc2ccccc2Cl)C1=S` (configuration not stated) was tested. Which TGI (MOLT-4 leukemia) did it give?
A: The TGI was greater than 100 µM.

Q: And the TGI (HL-60(TB) leukemia)?
A: Its TGI is greater than 100 µM.

Q: What about the TGI (BT-549 breast) of the same compound?
A: Its TGI is 57.5 µM.

Q: And the TGI (RXF 393 renal)?
A: Its TGI is 21.9 µM.

Q: What about the TGI (U251 CNS) of the same compound?
A: The TGI was 67.8 µM.

Q: And the TGI (SNB-19 CNS)?
A: Its TGI is greater than 100 µM.

Q: What about the TGI (NCI-H522 lung) of the same compound?
A: Its TGI is 56.6 µM.

Q: And the TGI (A549 NSCLC)?
A: Its TGI is greater than 100 µM.

Q: What about the TGI (MCF7 breast) of the same compound?
A: The TGI was 78.4 µM.

Q: What about the TGI (DU-145 prostate) of the same compound?
A: The TGI was greater than 100 µM.

Q: What about the TGI (HCT-116 colon) of the same compound?
A: Its TGI is 79.4 µM.

Q: What about the TGI (HT29 colon) of the same compound?
A: Its TGI is greater than 100 µM.

Q: What about the TGI (IGROV1 ovarian) of the same compound?
A: The TGI was greater than 100 µM.

Q: What about the TGI (HCT-15 colon) of the same compound?
A: The TGI was greater than 100 µM.

Q: And the TGI (SF-268 CNS)?
A: The TGI was 86.5 µM.

Q: What about the TGI (UACC-257 melanoma) of the same compound?
A: Its TGI is 38 µM.

Q: What about the TGI (A498 renal) of the same compound?
A: The TGI was 47 µM.

Q: And the TGI (CAKI-1 renal)?
A: The TGI was greater than 100 µM.

Q: What about the TGI (EKVX NSCLC) of the same compound?
A: Its TGI is 93.7 µM.

Q: And the TGI (HOP-92 NSCLC)?
A: Its TGI is 69.3 µM.

Q: And the TGI (SF-295 CNS)?
A: Its TGI is greater than 100 µM.

Q: And the TGI (MDA-N)?
A: The TGI was 60.6 µM.

Q: And the TGI (KM12 colon)?
A: Its TGI is 92.5 µM.

Q: And the TGI (HOP-62 NSCLC)?
A: Its TGI is greater than 100 µM.

Q: What about the TGI (PC-3 prostate) of the same compound?
A: The TGI was 55.7 µM.

Q: What about the TGI (LOX IMVI melanoma) of the same compound?
A: Its TGI is 54.9 µM.

Q: What about the TGI (SF-539 CNS) of the same compound?
A: Its TGI is 36 µM.

Q: What about the TGI (ACHN renal) of the same compound?
A: Its TGI is 88.4 µM.

Q: And the TGI (T-47D breast)?
A: Its TGI is 44.1 µM.

Q: What about the TGI (OVCAR-4 ovarian) of the same compound?
A: Its TGI is greater than 100 µM.

Q: What about the TGI (SK-OV-3 ovarian) of the same compound?
A: The TGI was greater than 100 µM.

Q: What about the TGI (786-0 renal) of the same compound?
A: Its TGI is greater than 100 µM.

Q: And the TGI (OVCAR-8 ovarian)?
A: The TGI was 72.1 µM.

Q: And the TGI (SW-620 colon)?
A: The TGI was greater than 100 µM.

Q: And the TGI (CCRF-CEM leukemia)?
A: Its TGI is greater than 100 µM.

Q: What about the TGI (SK-MEL-5 melanoma) of the same compound?
A: The TGI was 33.4 µM.

Q: And the TGI (SN12C renal)?
A: Its TGI is 94.8 µM.

Q: What about the TGI (NCI-H23 lung) of the same compound?
A: The TGI was 56.7 µM.

Q: What about the TGI (UACC-62 melanoma) of the same compound?
A: The TGI was 46.3 µM.

Q: And the TGI (MALME-3M melanoma)?
A: Its TGI is 56.7 µM.

Q: What about the TGI (COLO 205 colon) of the same compound?
A: The TGI was 32.9 µM.

Q: What about the TGI (OVCAR-5 ovarian) of the same compound?
A: The TGI was greater than 100 µM.

Q: What about the TGI (NCI-H460 lung) of the same compound?
A: The TGI was greater than 100 µM.

Q: What about the TGI (TK-10 renal) of the same compound?
A: The TGI was 67.4 µM.

Q: What about the TGI (MDA-MB-231 breast) of the same compound?
A: The TGI was 97 µM.

Q: What about the TGI (RPMI-8226 leukemia) of the same compound?
A: The TGI was 70.4 µM.

Q: What about the TGI (OVCAR-3 ovarian) of the same compound?
A: The TGI was 88.8 µM.

Q: What about the TGI (NCI/ADR-RES ovarian) of the same compound?
A: Its TGI is 53.1 µM.

Q: And the TGI (MDA-MB-435)?
A: Its TGI is 65.9 µM.

Q: And the TGI (SK-MEL-28 melanoma)?
A: Its TGI is 62.4 µM.

Q: What about the TGI (SK-MEL-2 melanoma) of the same compound?
A: Its TGI is 44.1 µM.

Q: And the TGI (HS 578T breast)?
A: Its TGI is greater than 100 µM.

Q: What about the TGI (M14 melanoma) of the same compound?
A: Its TGI is 79.9 µM.

Q: Which results are given for `COC(=O)/C=C\n1c(C)cc(=O)[nH]c1=O`?
A: TGI (NCI-H226 lung): > 100 µM; TGI (MOLT-4 leukemia): > 100 µM; TGI (HCC-2998 colon): > 100 µM; TGI (BT-549 breast): > 100 µM; TGI (RXF 393 renal): > 100 µM; TGI (U251 CNS): > 100 µM; TGI (SNB-19 CNS): > 100 µM; TGI (NCI-H522 lung): > 100 µM; TGI (A549 NSCLC): > 100 µM; TGI (MCF7 breast): 89 µM; TGI (HCT-116 colon): > 100 µM; TGI (HT29 colon): > 100 µM; TGI (IGROV1 ovarian): > 100 µM; TGI (HCT-15 colon): > 100 µM; TGI (SF-268 CNS): > 100 µM; TGI (UACC-257 melanoma): > 100 µM; TGI (SR leukemia): > 100 µM; TGI (A498 renal): > 100 µM; TGI (EKVX NSCLC): > 100 µM; TGI (SNB-75 CNS): > 100 µM; TGI (HOP-92 NSCLC): > 100 µM; TGI (SF-295 CNS): > 100 µM; TGI (UO-31 renal): > 100 µM; TGI (MDA-N): > 100 µM; TGI (KM12 colon): > 100 µM; TGI (HOP-62 NSCLC): > 100 µM; TGI (PC-3 prostate): > 100 µM; TGI (SF-539 CNS): > 100 µM; TGI (ACHN renal): > 100 µM; TGI (T-47D breast): > 100 µM; TGI (OVCAR-4 ovarian): > 100 µM; TGI (SK-OV-3 ovarian): > 100 µM; TGI (786-0 renal): > 100 µM; TGI (OVCAR-8 ovarian): > 100 µM; TGI (SW-620 colon): > 100 µM; TGI (CCRF-CEM leukemia): > 100 µM; TGI (SK-MEL-5 melanoma): > 100 µM; TGI (SN12C renal): > 100 µM; TGI (NCI-H23 lung): > 100 µM; TGI (UACC-62 melanoma): > 100 µM; TGI (MALME-3M melanoma): > 100 µM; TGI (COLO 205 colon): > 100 µM; TGI (OVCAR-5 ovarian): > 100 µM; TGI (NCI-H460 lung): > 100 µM; TGI (TK-10 renal): > 100 µM; TGI (RPMI-8226 leukemia): > 100 µM; TGI (OVCAR-3 ovarian): > 100 µM; TGI (K-562 leukemia): > 100 µM; TGI (NCI/ADR-RES ovarian): > 100 µM; TGI (MDA-MB-435): > 100 µM; TGI (SK-MEL-28 melanoma): > 100 µM; TGI (SK-MEL-2 melanoma): > 100 µM; TGI (HS 578T breast): > 100 µM; TGI (M14 melanoma): > 100 µM
